Patent US4725683A, “Fluorophenoxyphenoxypropionates and derivatives thereof” (The Dow Chemical Company, priority 1985, dated 1988)

Legend:
Type in all cases: in vivo
Wheat [1] = assay: Postemergent activity; settings: Triticum aestivum, post-emergence, 336 h, read-out: % Control
Method: (§1) Representative compositions of the present invention were evaluated for the postemergence control of species of plants listed in Table A. In these evaluations, pots of the plant species listed in Table A, grown to a height of about 10 cms, were used. Aqueous spray compositions, containing various amounts of 2-[4-(2-fluoro-4-trifluoromethylphenoxy)-phenoxy]propionic acid methy ester, i.e., 125 ppm, 62.5 ppm, 31.25 ppm, 15.6 ppm, 7.8 ppm and 3.9 ppm, respectively, were applied to separate pots. The spray compositions were made by mixing the active ingredient in acetone to 1/2 the final volume, i.e., twice the final concentration. An equal amount of water was added to the active ingredient/acetone mixture wherein the water contained 0.1 percent by weight of TWEEN® 200 surfactant. The application to the plants was made to the point of run-off and was carried out with conventional spraying equipment. Other pots were sprayed with similar compositions containing no toxicant to serve as controls. Thereafter, the pots were maintained under conditions conducive for plant growth. Two weeks after treatment, the pots were examined for plant growth and evaluated on a scale of 0 to 100 where 0 represents no effect and 100 represents complete kill. The results of the examination of the treated pots are set forth below in Table A.
(§2) Substantially the same procedures as those described in Example A were repeated except that the active ingredients were 2-[4-(4-chloro-2-fluorophenoxy)phenoxy]propionic acid; methyl ester and its R-enantiomer and 2-(4-(4-bromo-2-fluorophenoxy)phenoxy propionic acid; methyl ester and its R enantiomer. The results are listed below in Table B.
(§3) In further operations employing the above general procedures and the indicated test compounds the following results were obtained: […]

Wild Oats [2] = assay: Postemergent activity; settings: Avena fatua, post-emergence, 336 h, read-out: % Control
Method: as §1, §2, §3

Barley = assay: Postemergent activity
Method: (§4) Representative compositions of the present invention were evaluated for the postemergence control of species of plants listed in Table A. In these evaluations, pots of the plant species listed in Table A, grown to a height of about 10 cms, were used. […] The spray compositions were made by mixing the active ingredient in acetone to 1/2 the final volume, i.e., twice the final concentration. An equal amount of water was added to the active ingredient/acetone mixture wherein the water contained 0.1 percent by weight of TWEEN® 200 surfactant. The application to the plants was made to the point of run-off and was carried out with conventional spraying equipment. […] Thereafter, the pots were maintained under conditions conducive for plant growth.

Blackgrass = assay: Postemergent activity
Method: as §4

Cheatgrass = assay: Postemergent activity
Method: as §4

Green Foxtail = assay: Postemergent activity
Method: as §4

Yellow Foxtail [3] = assay: Postemergent activity
Method: as §4

Barnyard Grass = assay: Preemergent activity; settings: Echinochloa crus-galli, pre-emergence, read-out: Preemergence Control
Method: (§5) In a representative operation, 2-[4-(2-fluoro-4-trifluoromethylphenoxy)phenoxy]propionic acid methyl ester, to be utilized in a series of tests, is dissolved in acetone to one half of the final volume (twice the final concentration) to be used and the acetone solution in each case is admixed with an equal volume of water containing 0.1 percent by weight of Tween-20 surface active material (Tween-20 is a trademark of Atlas Chemical Company). The composition, generally in the nature of an emulsion, was employed to treat separate respective seed beds of sandy loam soil of good nutrient content wherein each seed bed contained separate groups of good viable seeds, each group being of one of a known plant species. The various beds were positioned side by side and exposed to substantially identical conditions of temperature and light. Each bed was maintained so as to prevent any interaction with the test compound in different seed beds. Each seed bed was treated with the composition as a spray employing conventional spraying equipment to deposit a predetermined amount of the compound uniformly throughout the surface of the bed. Another seed bed was treated only with the acetone-Tween-20 water mixture with no chemical added to serve as a control.

Crabgrass = assay: Preemergent activity
Method: as §5

Johnson Grass = assay: Preemergent activity; settings: Sorghum halepense, pre-emergence, read-out: Preemergence Control
Method: as §5

Wheat [4] = assay: Preemergent activity; settings: Triticum aestivum, pre-emergence, read-out: Preemergence Control
Method: as §5

Wild Oats [5] = assay: Preemergent activity; settings: Avena fatua, pre-emergence, read-out: Preemergence Control
Method: as §5

Yellow Foxtail [6] = assay: Preemergent activity; settings: Setaria, pre-emergence, read-out: Preemergence Control
Method: as §5

Work on `COC(=O)[C@@H](C)Oc1ccc(Oc2ccc(Cl)cc2F)cc1` [4-Chloro-(R-Enantiomer), R enantiomer of 2-[4-(4-chloro-2-fluorophenoxy)phenoxy]propionic acid methyl ester] yielded a plant injury at 7.8 ppm (Wheat [1]) of 0%, a plant injury at 15.6 ppm (Wheat [1]) of 0% and a plant injury at 31.25 ppm (Wheat [1]) of 0%. For the same compound, the plant injury at 62.5 ppm (Wheat [1]) was 70%, the plant injury at 125 ppm (Wheat [1]) was 60% and the pest or weed control at 7.8 ppm (Wild Oats [2]) was 40%. It also gave a pest or weed control at 15.6 ppm (Wild Oats [2]) of 80%, a pest or weed control at 31.25 ppm (Wild Oats [2]) of 100% and a pest or weed control at 62.5 ppm (Wild Oats [2]) of 100%. For the same compound, the pest or weed control at 125 ppm (Wild Oats [2]) was 100%, the “% Control” value (Barley; 7.8 ppm) was 0% and the “% Control” value (Barley; 15.6 ppm) was 0%. For the same compound, the “% Control” value (Barley; 31.25 ppm) was 0%, the “% Control” value (Barley; 62.5 ppm) was 0% and the “% Control” value (Barley; 125 ppm) was 40%. For the same compound, the “% Control” value (Blackgrass; 0.4 ppm) was 0%, the “% Control” value (Blackgrass; 0.8 ppm) was 40% and the “% Control” value (Blackgrass; 1.6 ppm) was 80%. The “% Control” value (Blackgrass; 3.2 ppm) was 90%, the “% Control” value (Blackgrass; 6.3 ppm) was 95% and the “% Control” value (Blackgrass; 12.5 ppm) was 100%. For the same compound, the “% Control” value (Blackgrass; 25 ppm) was 100%, the “% Control” value (Cheatgrass; 0.4 ppm) was 0% and the “% Control” value (Cheatgrass; 0.8 ppm) was 0%. For the same compound, the “% Control” value (Cheatgrass; 1.6 ppm) was 0%, the “% Control” value (Cheatgrass; 3.2 ppm) was 0% and the “% Control” value (Cheatgrass; 6.3 ppm) was 0%. The “% Control” value (Cheatgrass; 12.5 ppm) was 0%, the “% Control” value (Cheatgrass; 25 ppm) was 0% and the “% Control” value (Green Foxtail; 0.4 ppm) was 0%. For the same compound, the “% Control” value (Green Foxtail; 0.8 ppm) was 80%, the “% Control” value (Green Foxtail; 1.6 ppm) was 100% and the “% Control” value (Green Foxtail; 3.2 ppm) was 100%. The “% Control” value (Green Foxtail; 6.3 ppm) was 100%, the “% Control” value (Green Foxtail; 12.5 ppm) was 100% and the “% Control” value (Green Foxtail; 25 ppm) was 100%. The “% Control” value (Yellow Foxtail [3]; 0.4 ppm) was 0%, the “% Control” value (Yellow Foxtail [3]; 0.8 ppm) was 0% and the “% Control” value (Yellow Foxtail [3]; 1.6 ppm) was 0%. For the same compound, the “% Control” value (Yellow Foxtail [3]; 3.2 ppm) was 40%, the “% Control” value (Yellow Foxtail [3]; 6.3 ppm) was 60% and the “% Control” value (Yellow Foxtail [3]; 12.5 ppm) was 100%. For the same compound, the “% Control” value (Yellow Foxtail [3]; 25 ppm) was 100%, the pest or weed control at 70 g/ha (Barnyard Grass; 0.07 kgs/hectare) was 0% and the pest or weed control at 140 g/ha (Barnyard Grass; 0.14 kgs/hectare) was 10%. For the same compound, the pest or weed control at 280 g/ha (Barnyard Grass; 0.28 kgs/hectare) was 98%, the pest or weed control at 560 g/ha (Barnyard Grass; 0.56 kgs/hectare) was 100% and the pest or weed control at 1120 g/ha (Barnyard Grass; 1.12 kgs/hectare) was 100%. The “Preemergence Control” value (Crabgrass; 0.07 kgs/hectare) was 70%, the “Preemergence Control” value (Crabgrass; 0.14 kgs/hectare) was 98% and the “Preemergence Control” value (Crabgrass; 0.28 kgs/hectare) was 100%. The “Preemergence Control” value (Crabgrass; 0.56 kgs/hectare) was 100%, the “Preemergence Control” value (Crabgrass; 1.12 kgs/hectare) was 100% and the pest or weed control at 70 g/ha (Johnson Grass; 0.07 kgs/hectare) was 0%. The pest or weed control at 140 g/ha (Johnson Grass; 0.14 kgs/hectare) was 0%, the pest or weed control at 280 g/ha (Johnson Grass; 0.28 kgs/hectare) was 80% and the pest or weed control at 560 g/ha (Johnson Grass; 0.56 kgs/hectare) was 95%. The pest or weed control at 1120 g/ha (Johnson Grass; 1.12 kgs/hectare) was 98%, the plant injury at 70 g/ha (Wheat [4]; 0.07 kgs/hectare) was 0% and the plant injury at 140 g/ha (Wheat [4]; 0.14 kgs/hectare) was 0%. It also gave a plant injury at 280 g/ha (Wheat [4]; 0.28 kgs/hectare) of 0%, a plant injury at 560 g/ha (Wheat [4]; 0.56 kgs/hectare) of 10% and a plant injury at 1120 g/ha (Wheat [4]; 1.12 kgs/hectare) of 20%. It also gave a pest or weed control at 70 g/ha (Wild Oats [5]; 0.07 kgs/hectare) of 0%, a pest or weed control at 140 g/ha (Wild Oats [5]; 0.14 kgs/hectare) of 0% and a pest or weed control at 280 g/ha (Wild Oats [5]; 0.28 kgs/hectare) of 0%. For the same compound, the pest or weed control at 560 g/ha (Wild Oats [5]; 0.56 kgs/hectare) was 60%, the pest or weed control at 1120 g/ha (Wild Oats [5]; 1.12 kgs/hectare) was 80% and the pest or weed control at 70 g/ha (Yellow Foxtail [6]; 0.07 kgs/hectare) was 0%. For the same compound, the pest or weed control at 140 g/ha (Yellow Foxtail [6]; 0.14 kgs/hectare) was 0%, the pest or weed control at 280 g/ha (Yellow Foxtail [6]; 0.28 kgs/hectare) was 30% and the pest or weed control at 560 g/ha (Yellow Foxtail [6]; 0.56 kgs/hectare) was 95%. For the same compound, the pest or weed control at 1120 g/ha (Yellow Foxtail [6]; 1.12 kgs/hectare) was 98%.
